Results from ChEMBL document CHEMBL3217629, “Discovery of novel morpholinoquinoxalines as PI3K inhibitors by pharmacophore-based screening” (Medchemcomm, 2012).

Columns and labels:
[1] = biological target: Phosphatidylinositol 4,5-bisphosphate 3-kinase catalytic subunit alpha isoform (Homo sapiens, UniProt P42336); experiment: Inhibition of recombinant human PI3Kalpha using diC8-PI(4,5)P2 as substrate after 3 hrs by fluorescence polarization method
HL-60 = experiment: Cytotoxicity against human HL60 cells after 72 hrs by MTT assay; assay type: functional, cell-based; settings: HL-60, 72 h
A549 = experiment: Cytotoxicity against human A549 cells after 72 hrs by MTT assay; assay type: functional, cell-based; settings: A549, 72 h
PC-3 = experiment: cells; settings: Homo sapiens, PC-3, 72 h
Description: Cytotoxicity against human PC3 cells after 72 hrs by MTT assay

HCT-116 = experiment: cells; settings: Homo sapiens, HCT-116, 72 h

Sequence of Phosphatidylinositol 4,5-bisphosphate 3-kinase catalytic subunit alpha isoform (P42336 whole entry, canonical isoform): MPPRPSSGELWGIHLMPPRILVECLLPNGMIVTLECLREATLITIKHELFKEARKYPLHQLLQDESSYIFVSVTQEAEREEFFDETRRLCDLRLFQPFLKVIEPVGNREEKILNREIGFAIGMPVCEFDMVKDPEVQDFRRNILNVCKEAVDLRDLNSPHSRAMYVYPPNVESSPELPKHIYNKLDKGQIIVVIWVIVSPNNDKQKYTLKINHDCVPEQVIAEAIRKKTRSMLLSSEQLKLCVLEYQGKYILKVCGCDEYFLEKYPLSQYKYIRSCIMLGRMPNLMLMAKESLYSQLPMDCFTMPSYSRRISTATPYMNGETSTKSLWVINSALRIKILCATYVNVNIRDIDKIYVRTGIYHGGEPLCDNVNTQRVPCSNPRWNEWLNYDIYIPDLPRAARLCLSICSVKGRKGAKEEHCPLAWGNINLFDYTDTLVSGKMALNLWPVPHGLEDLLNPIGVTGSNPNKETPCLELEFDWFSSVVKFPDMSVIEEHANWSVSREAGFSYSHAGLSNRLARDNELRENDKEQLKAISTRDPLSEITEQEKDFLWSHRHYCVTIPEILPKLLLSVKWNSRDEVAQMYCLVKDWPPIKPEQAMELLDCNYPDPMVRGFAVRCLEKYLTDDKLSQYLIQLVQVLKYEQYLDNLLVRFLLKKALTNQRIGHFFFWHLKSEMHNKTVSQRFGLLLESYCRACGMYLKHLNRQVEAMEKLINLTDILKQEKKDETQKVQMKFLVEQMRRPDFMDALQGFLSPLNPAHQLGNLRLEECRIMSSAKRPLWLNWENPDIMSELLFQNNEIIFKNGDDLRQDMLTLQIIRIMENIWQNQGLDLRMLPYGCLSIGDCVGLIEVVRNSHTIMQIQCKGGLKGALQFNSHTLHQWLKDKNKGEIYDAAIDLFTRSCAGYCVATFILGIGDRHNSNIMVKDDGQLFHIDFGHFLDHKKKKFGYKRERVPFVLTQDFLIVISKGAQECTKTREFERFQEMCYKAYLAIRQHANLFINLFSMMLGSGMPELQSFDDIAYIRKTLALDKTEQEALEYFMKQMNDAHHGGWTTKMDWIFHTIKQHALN

Compound	IC50 [1] [nM]	IC50 (HL-60) [µM]	IC50 (A549) [µM]	IC50 (PC-3) [µM]	IC50 (HCT-116) [µM]
Cc1ccc(S(=O)(=O)c2nc3ccccc3nc2N2CCOCC2)cc1	1580	0.95	3.3	9.34	10.5
COc1ccc(S(=O)(=O)c2nc3ccccc3nc2N2CCOCC2)cc1	1400	4.8	19.4	0.88	> 50
O=S(=O)(c1ccc(Br)cc1)c1nc2ccccc2nc1N1CCOCC1	2890	3.41	6.65	25.4	35
O=S(=O)(c1ccc(F)cc1)c1nc2ccccc2nc1N1CCOCC1	2490	1.74	5.64	3.4	3.61
c1ccc(Sc2nc3ccccc3nc2N2CCOCC2)cc1	> 50000	5.18	7.25	> 50	45.6
O=S(=O)(c1ccccc1)c1nc2ccccc2nc1N1CCCCC1	21600	27.1	> 50	26.9	6.48
